Measurements taken from patent publication US20110172204A1, “COMPOUNDS AND THEIR USE” (TAKEDA PHARMACEUTICAL COMPANY LIMITED, priority 2010, published 2011).

Tests used:
[1] = molecular target: T1, human H3 receptor (Homo sapiens, UniProt Q9Y5N1); assay: In vitro H3 functional assay (cAMP response element driven luciferase reporter); format: cell-based; design: expressed in transfected cells; conditions: CHO(dhfr+)-cre-luc cells expressing human H3; forskolin 1 μM, RαMH 10 nM; read-out: hH3 functional IC50
Method: The functional activity of compounds at the H3 receptor was determined by measuring changes in the level of intracellular cAMP using a cAMP response element driven luciferase reporter assay. The changes in luciferase expression were monitored by a luminescence plate reader, Analyst HT (MDS Analytical). Increases in intracellular cAMP were readily detected upon activation of protein kinase A by forskolin (Sigma) and suppression of this response observed with the application of the H3 receptor agonist RαMH (Sigma).
CHO(dhfr^+)-cre-luc cells stably expressing human H3 receptor were routinely grown as monolayers in Minimal Essential Medium α (MEMα) (Invitrogen) supplemented with 10% dialysed FBS (Hyclone), in 5% CO2 at 37° C. 48 hours prior to assay, cells were seeded in clear-base white walled 384-well plates (Corning) at a density of 5000 cells/well. On the day of assay, growth media was removed and replaced with 15 μl of assay buffer (MEMα, 5 mg/ml fatty acid free BSA (Sigma)) per well. Cells were then incubated for 30 minutes at 37° C., 5% CO2. Compound was serially diluted in DMSO before being diluted 1:10 with assay buffer. 2.5 μl of compound diluted in assay buffer was added and cells incubated for 5 minutes at 37° C., 5% CO2. 2.5 μl of each reagent was then added in the following order: RαMH (10 nM), isobutylmethylxanthine (1-methyl-3-(2-methylpropyl)-7H-purine-2,6-dione; IBMX) (500 μM) (Sigma) and forskolin (1 μM). Cells were then incubated for 90 minutes at 37° C., 5% CO2, followed by 30 minutes at room temperature. At the end of incubation 25 μl of Steadylite reagent (Perkin Elmer) was added, plates were sealed and placed on a shaker for 5 minutes. The level of light output to determine the level of luciferase expression was then measured.
IC50 values for compounds were determined from ten point half log scale dose-response studies and represent the concentration of compound required to […] 50% inhibition of forskolin stimulated cells in the presence of RαMH alone. Curves were generated using the average of duplicate wells for each data point and analyzed using nonlinear regression of four parameter dose response.

[2] = molecular target: T1, human H3 receptor; assay: In vitro H3 binding assay (3H-NαMH competition binding); design: expressed in transfected cells; conditions: membranes of CHO-K1 cells expressing human H3; inhibition of specific binding of 2 nM 3H-NαMH; read-out: hH3 binding IC50
Method: The ability of compounds to bind to the H3 receptor was determined by measuring the reduction in tritiated N-α-methyl-histamine (^3H-NαMH) binding in a competition binding assay. Changes in the levels of bound radio-label were monitored by scintillation counting with a Trilux Microbeta (Perkin Elmer).
Membranes were prepared from CHO-K1 cells stably expressing human H3 receptor; routinely grown as monolayers in Ham's F12 medium (Invitrogen) supplemented with 10% Foetal Clone III (Hyclone), 500 μg/ml G418 (Invitrogen), 5 μg/ml blasticidine S (Invivogen) and 50 μg/ml Gentamicin (Sigma) in 5% CO2 at 37° C. Cells were grown to 80-95% confluency, rinsed once with 1×PBS (Invitrogen) and detached by incubating with 1×PBS containing 0.02% EDTA (Sigma) for 10 minutes at room temperature. Cells were collected by centrifugation at 900×g, 4° C. for 10 minutes. Cells were rinsed once with 1×PBS and re-suspended in ice cold homogenisation buffer (50 mM Tris-HCl (pH 7.4), 2.5 mM EDTA, 5 mM MgCl2, 200 mM Sucrose) at 1×10^7 cells/ml and kept on ice. Cells were homogenised on ice and debris removed by centrifugation at 500×g, 4° C. for 5 minutes. The resulting supernatant was centrifuged at 75,600×g, 4° C. for 60 minutes. Membranes were suspended in homogenisation buffer, protein concentration was determined (BCA Protein Assay kit (Pierce)), diluted to 2.2 mg/ml, dispensed into 1 ml aliquots and stored at −80° C.
Membranes were thawed on ice, sonicated with 4 cycles of 20 pulses (50% amplitude, 0.5 pulse) (UP200S Hielscher) on ice, diluted in assay buffer (50 mM Tris-HCl (pH7.4), 5 mM MgCl2) to 62.5 μg/ml. Compound was serially diluted in DMSO before being diluted 1:10 with assay buffer. 5 μg of membrane in 80 μl of assay buffer was added per well of a 96 well polystyrene plate (Corning). 10 μl of compound was added per well. The assay was initiated by the addition of 10 μl of 20 nM ^3H-NαMH per well and incubated for one hour at room temperature with shaking Total binding was determined in the presence of 1% DMSO and non-specific binding was determined by the inclusion of 1 μM R-α-methyl-histamine (RαMH). Incubations were then filtered through filtermat A (Perkin Elmer) and washed three times with assay buffer. Filtermats were dried at 42° C. for two hours, scintillant added and the level of bound radioactivity determined.
IC50 values for compounds were determined from seven point log scale dose-response studies and represent the concentration of compound required to inhibit 50% of the specific binding of 2 nM ^3H-NαMH (difference between total and non-specific binding). Curves were generated using the average of duplicate wells for each data point and analyzed using nonlinear regression of sigmoidal dose response (variable slope).

[3] = molecular target: T2, H3 receptor (Rattus norvegicus, UniProt Q9QYN8); conditions: cited from earlier work
T2 construct: host or cells: living rat (endogenous receptor)

[4] = molecular target: T2, H3 receptor; conditions: cited from earlier work; remark: listed apart in the source
[5] = molecular target: rat H3 receptors (Rattus norvegicus, UniProt Q9QYN8); conditions: cited from earlier work
[6] = molecular target: T1, human H3 receptor; conditions: cited from earlier work
[7] = molecular target: T3, H3 receptor (Mus musculus, UniProt P58406); conditions: mice; cited from earlier work
T3 construct: host or cells: living mouse (endogenous receptor)

[8] = molecular target: T3, H3 receptor; conditions: lean and obese mice; cited from earlier work
[9] = test system: H3 receptor; conditions: a number of acute pain models; cited from earlier work

T2 sequence (Q9QYN8 whole entry): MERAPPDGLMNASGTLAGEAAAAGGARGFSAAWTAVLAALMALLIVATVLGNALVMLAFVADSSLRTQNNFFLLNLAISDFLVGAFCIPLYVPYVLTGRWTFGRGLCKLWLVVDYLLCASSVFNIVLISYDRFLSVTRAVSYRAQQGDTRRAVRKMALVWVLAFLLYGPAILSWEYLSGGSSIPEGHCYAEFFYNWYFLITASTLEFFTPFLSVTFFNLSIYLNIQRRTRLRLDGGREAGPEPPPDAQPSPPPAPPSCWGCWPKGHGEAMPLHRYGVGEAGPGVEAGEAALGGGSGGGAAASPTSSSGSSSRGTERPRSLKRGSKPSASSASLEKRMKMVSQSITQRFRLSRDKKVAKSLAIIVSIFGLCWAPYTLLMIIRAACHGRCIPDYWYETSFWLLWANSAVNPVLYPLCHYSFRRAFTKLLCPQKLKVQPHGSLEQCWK
T1 sequence (Q9Y5N1 whole entry): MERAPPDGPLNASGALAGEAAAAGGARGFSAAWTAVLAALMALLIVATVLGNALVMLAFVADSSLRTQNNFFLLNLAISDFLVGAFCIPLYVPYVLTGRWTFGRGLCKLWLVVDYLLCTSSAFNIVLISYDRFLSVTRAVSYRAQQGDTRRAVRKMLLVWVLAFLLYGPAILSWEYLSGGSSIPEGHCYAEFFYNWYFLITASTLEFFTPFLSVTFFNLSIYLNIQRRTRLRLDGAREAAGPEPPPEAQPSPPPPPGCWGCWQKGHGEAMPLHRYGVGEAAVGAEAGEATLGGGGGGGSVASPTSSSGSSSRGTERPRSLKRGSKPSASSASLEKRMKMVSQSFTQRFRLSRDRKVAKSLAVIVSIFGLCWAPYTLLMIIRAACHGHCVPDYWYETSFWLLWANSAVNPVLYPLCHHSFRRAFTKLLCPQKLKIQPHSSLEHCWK
T3 sequence (P58406 whole entry): as the sequence (Q9QYN8 whole entry) above, with T15A, A286T, A290G, R387H, I389V counted along it
rat H3 receptors, sequence (Q9QYN8 whole entry): as the sequence (Q9QYN8 whole entry) above

| SMILES | IC50 [1] [nM] | IC50 [2] [nM] | further results |
| --- | --- | --- | --- |
| CO[C@@H]1CCN(c2ncc(C(=O)NCc3ccc4c(c3)CCN(C3CCC3)CC4)cn2)C1 [Example 1, N-[(3-cyclobutyl-2,3,4,5-tetrahydro-1H-3-benzazepin-7-yl)methyl]-2-[(3R)-3-methoxypyrrolidin-1-yl]pyrimidine-5-carboxamide] | 1 | 0.5 | – |
| CO[C@H]1CCN(c2ncc(C(=O)NCc3ccc4c(c3)CCN(C3CCC3)CC4)cn2)C1 [Example 2, N-[(3-cyclobutyl-2,3,4,5-tetrahydro-1H-3-benzazepin-7-yl)methyl]-2-[(3S)-3-methoxypyrrolidin-1-yl]pyrimidine-5-carboxamide] | 2 | 2 | – |
| COC1CN(c2ncc(C(=O)NCc3ccc4c(c3)CCN(C3CCC3)CC4)cn2)C1 [Example 3, N-((3-cyclobutyl-2,3,4,5-tetrahydro-1H-3-benzazepin-7-yl)methyl)-2-(3-methoxyazetidin-1-yl)pyrimidine-5-carboxamide] | 2 | 3 | – |
| O=C(NCc1ccc2c(c1)CCN(C1CCC1)CC2)c1cnc(N2CCC(F)(F)C2)nc1 [Example 4, N-[(3-cyclobutyl-2,3,4,5-tetrahydro-1H-3-benzazepin-7-yl)methyl]-2-(3,3-difluoropyrrolidin-1-yl)pyrimidine-5-carboxamide] | 3 | 2 | – |
| O=C(NCc1ccc2c(c1)CCN(C1CCC1)CC2)c1cnc(N2CCC(F)(F)CC2)nc1 [Example 5, N-((3-cyclobutyl-2,3,4,5-tetrahydro-1H-3-benzazepin-7-yl)methyl)-2-(4,4-difluoropiperidin-1-yl)pyrimidine-5-carboxamide] | 3 | 1 | – |
| CO[C@H]1CCN(c2ncc(C(=O)N(C)Cc3ccc4c(c3)CCN(C3CCC3)CC4)cn2)C1 [Example 6, N-[(3-cyclobutyl-2,3,4,5-tetrahydro-1H-3-benzazepin-7-yl)methyl]-2-[(3S)-3-methoxypyrrolidin-1-yl]-N-methylpyrimidine-5-carboxamide] | 2 | 4 | – |
| CO[C@@H]1CCN(c2ncc(C(=O)N(C)Cc3ccc4c(c3)CCN(C3CCC3)CC4)cn2)C1 [Example 7, N-[(3-cyclobutyl-2,3,4,5-tetrahydro-1H-3-benzazepin-7-yl)methyl]-2-[(3R)-3-methoxypyrrolidin-1-yl]-N-methylpyrimidine-5-carboxamide] | 6 | 5 | – |
| CO[C@@H](C)CN(C)c1ncc(C(=O)NCc2ccc3c(c2)CCN(C2CCC2)CC3)cn1 [Example 8, N-[(3-cyclobutyl-2,3,4,5-tetrahydro-1H-3-benzazepin-7-yl)methyl]-2-{[(2S)-2-methoxypropyl](methyl)amino}pyrimidine-5-carboxamide] | 2 | 0.73 | – |
| CO[C@H](C)CN(C)c1ncc(C(=O)NCc2ccc3c(c2)CCN(C2CCC2)CC3)cn1 [Example 9, N-[(3-cyclobutyl-2,3,4,5-tetrahydro-1H-3-benzazepin-7-yl)methyl]-2-{[(2R)-2-methoxypropyl](methyl)amino}pyrimidine-5-carboxamide] | 8 | 4 | – |
| C[C@H]1CC[C@H](C)N1CCCOc1ccc(-c2ccc(C(=O)N3CCOCC3)cc2)cc1 [Example A-349821] | – | – | cognition-enhancing effects [3]: cognition-enhancing effects |
| CNC(=O)c1cnc(Oc2ccc3c(c2)CCN(C2CCC2)CC3)cn1 [GSK207040] | – | – | tactile allodynia [4]: reduced tactile allodynia; affinity for rat H3 receptors [5]: high affinity |
| CC(C)N1CCCN(C(=O)C2CCN(c3ccc(C(F)(F)F)nc3)CC2)CC1 [GSK334429] | – | – | affinity for human H3 receptors [6]: high affinity; tactile allodynia [4]: reduced tactile allodynia; affinity for rat H3 receptors [5]: high affinity |
| NC(=NCc1ccc(Cl)cc1)SCCCc1cnc[nH]1 [clobenpropit] | – | – | histamine release in the hypothalamus [7]: increases histamine release; energy intake [8]: reducing energy intake |
| S=C(NC1CCCCC1)N1CCC(c2cnc[nH]2)CC1 [thioperamide] | – | – | antinociceptive effect [9]: antinociceptive effect |
